Laboratory results from PubChem BioAssay (NCI).
Several values for one entry are separate records, joined by “and”; a condition that tells them apart may be missing. Equal entries are not always repeated.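 Five concentrations, 48 hours, 96-well plates. Abbreviation: GI50, concentration required for 50% inhibition of growth. TGI: total growth inhibition.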

Columns and labels:
Assay in all cases: NCI tumour cell line growth inhibition, 48 h
[1] = system: 786-0 renal
[2] = system: A498 renal
[3] = system: A549 NSCLC
[4] = system: ACHN renal
[5] = system: BT-549 breast
[6] = system: CAKI-1 renal
[7] = system: CCRF-CEM leukemia
[8] = system: COLO 205 colon
[9] = system: DLD-1 colon
[10] = system: DMS 114 small cell lung
[11] = system: DMS 273 small cell lung
[12] = system: DU-145 prostate
[13] = system: EKVX NSCLC
[14] = system: HCC-2998 colon
[15] = system: HCT-116 colon
[16] = system: HCT-15 colon
[17] = system: HL-60(TB) leukemia
[18] = system: HOP-62 NSCLC
[19] = system: HOP-92 NSCLC
[20] = system: HS 578T breast
[21] = system: HT29 colon
[22] = system: IGROV1 ovarian
[23] = system: K-562 leukemia
[24] = system: KM12 colon
[25] = system: KM20L2 colon
[26] = system: LOX IMVI melanoma
[27] = system: LXFL 529 NSCLC
[28] = system: M14 melanoma
[29] = system: M19-MEL melanoma
[30] = system: MALME-3M melanoma
[31] = system: MDA-MB-231 breast
[32] = system: MDA-MB-435
[33] = system: MDA-N
[34] = system: MOLT-4 leukemia
[35] = system: NCI-H226 lung

`CC(C)(Br)C(=O)C(Br)Br` was tested, and the GI50 [1] was 4.85 µM, the TGI [1] was 26.9 µM and 8.99 µM and the TGI [2] was > 54.4 µM. The GI50 [3] was 11 µM, the TGI [3] was 37.3 µM and 41 µM and the GI50 [4] was 5.34 µM. The TGI [4] was 22.5 µM and 9.58 µM, the TGI [5] was 9.13 µM and the GI50 [6] was 5.21 µM. The TGI [6] was 3.81 µM and 9.43 µM, the GI50 [7] was 2.72 µM and the GI50 [8] was 4.06 µM. For the same compound, the TGI [8] was 7.04 µM and 8.3 µM, the TGI [9] was 3.34 µM and the TGI [10] was 18.1 µM. The TGI [11] was 26.9 µM, the TGI [12] was 70.6 µM and the GI50 [13] was 5.23 µM. The TGI [13] was 26.8 µM and 9.94 µM, the TGI [14] was 30.8 µM and the GI50 [15] was 5.33 µM. For the same compound, the TGI [15] was 9.91 µM and 9.61 µM, the GI50 [16] was 4.88 µM and the TGI [16] was > 21.9 µM and 9.57 µM. For the same compound, the GI50 [17] was 6.35 µM, the GI50 [18] was 59.7 µM and the TGI [18] was > 56.5 µM and 104 µM. The GI50 [19] was 4 µM, the TGI [19] was 3.16 µM and 8.12 µM and the TGI [20] was 19.9 µM. The GI50 [21] was 6.16 µM, the TGI [21] was 24 µM and 11.8 µM and the GI50 [22] was 3.66 µM. For the same compound, the TGI [22] was 21.8 µM and 8.09 µM, the GI50 [23] was 2.28 µM and the GI50 [24] was 5.8 µM. The TGI [24] was 30.8 µM and 11.7 µM, the TGI [25] was 32.2 µM and the GI50 [26] was 3.09 µM. For the same compound, the TGI [26] was 16.8 µM and 7.13 µM, the TGI [27] was 5.87 µM and the GI50 [28] was 5.42 µM. For the same compound, the TGI [28] was 7.07 µM and 9.69 µM, the TGI [29] was 16.1 µM and the GI50 [30] was 4.92 µM. The TGI [30] was 3.67 µM and 9.42 µM, the TGI [31] was 10 µM and the TGI [32] was 9.98 µM. It also gave a TGI [33] of 9.54 µM, a TGI [34] of 5.1 µM and a GI50 [35] of 7.5 µM. For the same compound, the TGI [35] was 30.6 µM and 21.3 µM.
